According to ChEMBL document CHEMBL5726904, “Compounds, compositions, and methods” (2018):

Target: Leucine-rich repeat serine/threonine-protein kinase 2 (Homo sapiens, UniProt Q5S007, G2019S)
Assay: Biochemical Assay: Materials: LRRK2 G2019S enzyme Substrate (LRRKtide) ATP TR-FRET dilution buffer pLRRKtide antibody 384-well assay plate DMSOEnzyme Reaction Conditions 50 mM Tris pH 7.5, 10 mM MgCl2, 1 mM EGTA, 0.01% Brij-35, 2 mM DTT 5 nM LRRK2 134 μM ATP 60 minute reaction time 23° C. reaction temperature 10 μL total reaction volumeDetection Reaction Conditions 1× TR-FRET dilution buffer 10 mM EDTA 2 nM antibody 23° C. reaction temperature 10 μL total reaction volumeCompounds were prepared by initially diluting to 1 mM with DMSO. 35 μL of reference compound solution, 35 μL of test compound solution, and 35 μL HPE were successively added to the source plate (384-well assay plate, Labcyte). The plates were centrifuged at 2500 rpm for 1 minute and sealed in foil. POD was used to perform a 3.162 fold serial dilution and 100 nL of reference compound solution, test compound solution, HPE and ZPE were transferred to assay plates. The assay plate was centrifuged at 2500 rpm for 1 minute, and sealed with foil.To perform the enzyme reaction, 5 μL of LRRKtide substrate and kinase mixture in assay buffer was added to all wells of the assay plate. The plate was centrifuged to concentrate the mixture at the bottom of the wells. The assay plate was incubated at 23° C. for 20 minutes. […]

Leucine-rich repeat serine/threonine-protein kinase 2, sequence (Q5S007 whole entry G2019S): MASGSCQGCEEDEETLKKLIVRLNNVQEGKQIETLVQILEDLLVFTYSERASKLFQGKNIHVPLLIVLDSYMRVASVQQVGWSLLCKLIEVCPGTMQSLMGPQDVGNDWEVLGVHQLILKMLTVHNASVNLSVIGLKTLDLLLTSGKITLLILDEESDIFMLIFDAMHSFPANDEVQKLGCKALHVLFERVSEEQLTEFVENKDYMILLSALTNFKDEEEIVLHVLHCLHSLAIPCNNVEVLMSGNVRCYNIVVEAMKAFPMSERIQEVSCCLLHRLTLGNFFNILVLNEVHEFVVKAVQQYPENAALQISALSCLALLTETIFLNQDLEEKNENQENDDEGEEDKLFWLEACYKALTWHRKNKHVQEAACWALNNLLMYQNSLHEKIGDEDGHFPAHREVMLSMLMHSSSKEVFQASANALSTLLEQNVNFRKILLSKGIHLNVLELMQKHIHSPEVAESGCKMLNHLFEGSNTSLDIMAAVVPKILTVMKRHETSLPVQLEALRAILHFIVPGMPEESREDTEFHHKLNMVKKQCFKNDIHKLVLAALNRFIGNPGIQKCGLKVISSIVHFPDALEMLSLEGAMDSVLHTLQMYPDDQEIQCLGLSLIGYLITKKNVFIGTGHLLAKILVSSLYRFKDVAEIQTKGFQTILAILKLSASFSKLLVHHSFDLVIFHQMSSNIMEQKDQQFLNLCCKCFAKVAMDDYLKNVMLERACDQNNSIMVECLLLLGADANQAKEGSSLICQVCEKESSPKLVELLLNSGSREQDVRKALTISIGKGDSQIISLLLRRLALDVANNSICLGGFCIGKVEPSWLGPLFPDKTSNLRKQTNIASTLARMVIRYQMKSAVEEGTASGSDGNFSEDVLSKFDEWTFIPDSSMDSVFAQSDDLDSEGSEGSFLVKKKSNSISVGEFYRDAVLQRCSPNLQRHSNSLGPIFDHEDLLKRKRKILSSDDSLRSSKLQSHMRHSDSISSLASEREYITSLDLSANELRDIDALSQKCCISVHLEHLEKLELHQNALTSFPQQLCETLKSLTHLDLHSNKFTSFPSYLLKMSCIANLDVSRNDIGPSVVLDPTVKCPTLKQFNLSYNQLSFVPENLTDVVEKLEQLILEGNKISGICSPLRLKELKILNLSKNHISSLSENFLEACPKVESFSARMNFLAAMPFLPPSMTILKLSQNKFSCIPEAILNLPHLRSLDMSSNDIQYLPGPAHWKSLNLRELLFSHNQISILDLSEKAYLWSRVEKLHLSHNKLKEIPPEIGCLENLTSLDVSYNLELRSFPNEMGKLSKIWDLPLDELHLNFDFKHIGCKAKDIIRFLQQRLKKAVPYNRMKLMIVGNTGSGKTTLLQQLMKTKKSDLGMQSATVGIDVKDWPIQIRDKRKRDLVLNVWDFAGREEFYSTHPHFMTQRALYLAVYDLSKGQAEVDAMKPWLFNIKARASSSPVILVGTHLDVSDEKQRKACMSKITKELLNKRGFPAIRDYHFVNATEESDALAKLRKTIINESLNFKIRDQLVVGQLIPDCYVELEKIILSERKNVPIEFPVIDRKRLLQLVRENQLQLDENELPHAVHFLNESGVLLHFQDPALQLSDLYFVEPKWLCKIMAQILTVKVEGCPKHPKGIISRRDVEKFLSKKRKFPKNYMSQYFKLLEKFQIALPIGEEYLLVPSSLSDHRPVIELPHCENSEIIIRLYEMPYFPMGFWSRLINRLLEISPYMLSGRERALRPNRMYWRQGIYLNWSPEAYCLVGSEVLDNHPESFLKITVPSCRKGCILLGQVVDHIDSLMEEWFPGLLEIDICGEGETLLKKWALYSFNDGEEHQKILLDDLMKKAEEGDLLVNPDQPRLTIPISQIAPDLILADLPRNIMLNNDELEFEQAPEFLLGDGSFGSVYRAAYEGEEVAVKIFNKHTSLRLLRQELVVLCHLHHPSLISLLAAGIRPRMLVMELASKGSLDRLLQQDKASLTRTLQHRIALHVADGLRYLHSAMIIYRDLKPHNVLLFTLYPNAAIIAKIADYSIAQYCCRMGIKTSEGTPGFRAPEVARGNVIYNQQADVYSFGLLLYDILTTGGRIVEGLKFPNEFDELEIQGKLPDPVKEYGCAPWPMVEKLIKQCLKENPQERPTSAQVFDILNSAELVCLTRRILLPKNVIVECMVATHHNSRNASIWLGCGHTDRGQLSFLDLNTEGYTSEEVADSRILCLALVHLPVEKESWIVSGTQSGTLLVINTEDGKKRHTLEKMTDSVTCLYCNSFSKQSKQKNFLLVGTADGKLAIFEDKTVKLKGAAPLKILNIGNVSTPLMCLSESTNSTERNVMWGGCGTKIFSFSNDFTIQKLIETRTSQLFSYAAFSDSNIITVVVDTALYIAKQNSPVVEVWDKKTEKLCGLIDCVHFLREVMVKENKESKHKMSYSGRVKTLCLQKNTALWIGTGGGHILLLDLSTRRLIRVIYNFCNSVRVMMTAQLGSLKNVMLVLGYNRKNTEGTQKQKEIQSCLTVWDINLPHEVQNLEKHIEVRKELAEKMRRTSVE

| SMILES | IC50 [nM] |
| --- | --- |
| COc1nc(Nc2cn(C(C)(C)C#N)nc2C)ncc1Br | < 30 |
| COc1nc(Nc2cn(C3C[C@@H]3C#N)nc2C2CC2)ncc1Br (single isomer, unassigned) | < 30 |
